{
  "source": "patent US10647653B2",
  "about": "“Crystal of monovalent cation salt of 3-hydroxyisovaleric acid and process for producing the crystal” (KYOWA HAKKO BIO CO., LTD., priority 2015, dated 2020)",
  "key": {"[1]": {"test": "Mixing with 0.2 M phosphate buffer, light transmittance (660 nm) to evaluate insoluble salt formation", "format": "physicochemical", "protocol": "A 100 g/L solution, in terms of free form, was prepared using the crystal of monovalent cation salt nonhydrate of HMB, obtained in each of Examples 2, 5 and 7, and mixed with 0.2 M phosphate buffer (pH: 6.80) in an arbitrary mixing ratio. The solution after mixing was measured for the light transmittance (660 nm) to evaluate the presence or absence of insoluble salt formation. In Table 13, “-” indicates unevaluated."}, "[2]": {"format": "physicochemical", "protocol": "The sodium HMB nonhydrate obtained in Example 2 was mixed with a glucose-amino acids-electrolytes infusion solution for peripheral vain nutrition [pH: about 6.7; Product Name: Aminofluid Infusion Solution (Otsuka Pharmaceutical Factory, Inc.)] to obtain 0, 0.11, 0.21 and 0.42 weight/volume % solutions at final concentration in terms of free form. The light transmittance (660 nm) was measured by ultraviolet and visible spectrophotometer immediately after the mixing or 24 hours after being left at room temperature to evaluate the presence or absence of insoluble salt formation."}, "[3]": {"details": "rat, in vivo", "protocol": "The solution was continuously administered to a rat on which operative stress was incurred by intestinal tract scratch operation at a normal dose (240 mL/kg/day) for 3 days. On the final day of administration, urine was collected by 24-hour urine collection and measured for the urinary electrolyte concentration."}, "[4]": {"test": "Measurement of solubility in water at room temperature (HMB concentration of supernatant by HPLC)", "format": "physicochemical", "protocol": "The crystal of monovalent cation salt nonhydrate of HMB, obtained in each of Examples 2, 5 and 7, was added at room temperature until it dissolved in water and after keeping the solution for a sufficient time under stirring, the supernatant containing no crystal was sampled and measured for the HMB concentration by using HPLC."}, "[5]": {"test": "pH of aqueous solution of 100 g/L salt crystal in terms of free HMB", "format": "physicochemical", "protocol": "As for pH, an aqueous solution of 100 g/L salt crystal in terms of free HMB was measured."}, "[6]": {"details": "mixing ratio 0.33 Vol/Vol (aqueous 100 g/L HMB solution/0.2M phosphate buffer pH 6.80)"}, "[7]": {"details": "mixing ratio 0.57 Vol/Vol (aqueous 100 g/L HMB solution/0.2M phosphate buffer pH 6.80)"}, "[8]": {"details": "HMB final concentration 0.11 weight/volume % in Aminofluid, 0 h after addition"}, "[9]": {"details": "HMB final concentration 0.11 weight/volume % in Aminofluid, 24 h after addition, room temperature"}, "[10]": {"details": "HMB final concentration 0.21 weight/volume % in Aminofluid, 0 h after addition"}, "[11]": {"details": "HMB final concentration 0.42 weight/volume % in Aminofluid, 24 h after addition, room temperature"}, "[12]": {"details": "mixing ratio 0.17 Vol/Vol (aqueous 100 g/L HMB solution/0.2M phosphate buffer pH 6.80)"}},
  "note": "Like-named read-outs stand apart in the source and are kept apart here.",
  "data": [
    {"smiles": "CC(C)(O)CC(=O)[O-].CC(C)(O)CC(=O)[O-].O.[Ca+2]", "note": "[Calcium HMB hydrate, reference compound]", "values": [
      {"measurement": "Transmittance T % (660 nm)", "setting": "[1]; mixing ratio 0.01 Vol/Vol (aqueous 100 g/L HMB solution/0.2M phosphate buffer pH 6.80)", "result": 60, "unit": "%"},
      {"measurement": "Transmittance T % (660 nm)", "setting": "[1]; [6]", "result": 0.02, "unit": "%"},
      {"measurement": "Transmittance T % (660 nm)", "setting": "[1]; [7]", "result": 0, "unit": "%"},
      {"measurement": "Insoluble salt formation (in words)", "setting": "[1]; mixing with phosphate buffer", "result": "produces an insoluble salt"},
      {"measurement": "Insoluble salt formation (in words)", "setting": "[2]", "result": "forms an insoluble salt"},
      {"measurement": "Transmittance T % (660 nm)", "setting": "[2]; [8]", "result": 100, "unit": "%"},
      {"measurement": "Transmittance T % (660 nm)", "setting": "[2]; [9]", "result": 70, "unit": "%"},
      {"measurement": "Transmittance T % (660 nm)", "setting": "[2]; [10]", "result": 90, "unit": "%"},
      {"measurement": "Transmittance T % (660 nm)", "setting": "[2]; [11]", "result": 20, "unit": "%"},
      {"measurement": "Electrolyte abnormality (in words)", "setting": "[3]", "result": "induces the increase in urinary calcium and the decrease in urinary phosphate excretion"}
    ]},
    {"smiles": "CC(C)(O)CC(=O)[O-].[Na+]", "note": "[Example 2, sodium HMB nonhydrate]", "values": [
      {"measurement": "Solubility", "setting": "[4]; in water, room temperature", "result": 729, "unit": "mg/mL"},
      {"measurement": "Solubility in water compared to existing calcium salt (in words)", "setting": "[4]; in water, room temperature", "result": "greatly enhanced in the solubility in water"},
      {"measurement": "Solubility (in terms of free form)", "setting": "[4]; in water, room temperature, in terms of free HMB", "result": 513, "unit": "mg/mL"},
      {"measurement": "pH", "setting": "[5]", "result": 7.9},
      {"measurement": "Transmittance T % (660 nm)", "setting": "[1]; [12]", "result": 100, "unit": "%"},
      {"measurement": "Transmittance T % (660 nm)", "setting": "[1]; [6]", "result": 100, "unit": "%"},
      {"measurement": "Transmittance T % (660 nm)", "setting": "[1]; [7]", "result": 100, "unit": "%"},
      {"measurement": "Insoluble salt formation (in words)", "setting": "[1]; mixing with phosphate buffer", "result": "do not form an insoluble salt"},
      {"measurement": "Insoluble salt formation (in words)", "setting": "[2]", "result": "does not form an insoluble salt"},
      {"measurement": "Transmittance T % (660 nm)", "setting": "[2]; [8]", "result": 100, "unit": "%"},
      {"measurement": "Transmittance T % (660 nm)", "setting": "[2]; [9]", "result": 100, "unit": "%"},
      {"measurement": "Transmittance T % (660 nm)", "setting": "[2]; [10]", "result": 100, "unit": "%"},
      {"measurement": "Transmittance T % (660 nm)", "setting": "[2]; HMB final concentration 0.21 weight/volume % in Aminofluid, 24 h after addition, room temperature", "result": 100, "unit": "%"},
      {"measurement": "Transmittance T % (660 nm)", "setting": "[2]; HMB final concentration 0.42 weight/volume % in Aminofluid, 0 h after addition", "result": 100, "unit": "%"},
      {"measurement": "Transmittance T % (660 nm)", "setting": "[2]; [11]", "result": 100, "unit": "%"},
      {"measurement": "Electrolyte abnormality (in words)", "setting": "[3]", "result": "does not induce the above electrolyte abnormality"}
    ]},
    {"smiles": "CC(C)(O)CC(=O)[O-].[K+]", "note": "[Example 5, potassium HMB nonhydrate]", "values": [
      {"measurement": "Solubility", "setting": "[4]", "result": 1011, "unit": "mg/mL"},
      {"measurement": "Solubility (in terms of free form)", "setting": "[4]", "result": 764, "unit": "mg/mL"},
      {"measurement": "Solubility in water compared to existing calcium salt (in words)", "setting": "[4]", "result": "greatly enhanced in the solubility in water"},
      {"measurement": "pH", "setting": "[5]", "result": 7.9},
      {"measurement": "Insoluble salt formation (in words)", "setting": "[1]", "result": "do not form an insoluble salt"},
      {"measurement": "Transmittance T % (660 nm)", "setting": "[1]; [12]", "result": 100, "unit": "%"},
      {"measurement": "Transmittance T % (660 nm)", "setting": "[1]; [6]", "result": 100, "unit": "%"},
      {"measurement": "Transmittance T % (660 nm)", "setting": "[1]; [7]", "result": 100, "unit": "%"}
    ]},
    {"smiles": "CC(C)(O)CC(=O)O.N", "note": "[Example 7, ammonium HMB nonhydrate]", "values": [
      {"measurement": "Solubility", "setting": "[4]", "result": 660, "unit": "mg/mL"},
      {"measurement": "Solubility (in terms of free form)", "setting": "[4]", "result": 577, "unit": "mg/mL"},
      {"measurement": "Solubility in water compared to existing calcium salt (in words)", "setting": "[4]", "result": "greatly enhanced in the solubility in water"},
      {"measurement": "pH", "setting": "[5]", "result": 5.7},
      {"measurement": "Insoluble salt formation (in words)", "setting": "[1]", "result": "do not form an insoluble salt"},
      {"measurement": "Transmittance T % (660 nm)", "setting": "[1]; [12]", "result": 100, "unit": "%"},
      {"measurement": "Transmittance T % (660 nm)", "setting": "[1]; [6]", "result": 100, "unit": "%"},
      {"measurement": "Transmittance T % (660 nm)", "setting": "[1]; [7]", "result": 100, "unit": "%"}
    ]}
  ]
}
